Experimental data reported in US20060282132A1, “Photodynamic therapy equipment, method for controlling photodynamic therapy equipment and method of photodynamic method” (KEIO UNIVERSITY, priority 2003, published 2006).

How the values were obtained:
[1] = concentration 6 μg/ml
[2] = tested on: mouse derived macrophage like cell J774.1
Protocol: With regard to arteriosclerotic athero model, mouse derived macrophage like cell J774.1 was used. PDT was performed after contacting with the second generation photosensitive substance ATX-S10 (ATX-S10 Na(II) (K.K. Hikari Chemical Lab.)) with good excretion, concentration of 6 μg/ml for 24 hours.
Irradiation of the light was performed with the light source: excimer dye laser (EDL-1, Hamamatsu Photonix Co., wavelength 670 nm, pulse width 10 ns); pulse energy density 1.2 to 9.5 mJ/cm^2 (corresponding to peak intensity […]); and repetition frequency 5 to 80 Hz. PDT effect as evaluated by a rate of cell death using MTT after performing for 24 hours.
Measurement was performed in concentration of administered photosensitive substance at 25 μg/ml and 50 μg/ml.

C=Cc1c(C)c2cc3nc(cc4[nH]c(cc5nc(cc1[nH]2)C(C)=C5CCC(=O)NC(CC(=O)[O-])C(=O)[O-])c(CCC(=O)NC(CC(=O)[O-])C(=O)[O-])c4C)C(C)(O)/C3=C\C=NO.[Na+].[Na+].[Na+].[Na+] (stereo not shown) [ATX-S10, Iminochlorin aspartic acid derivative]
changes of absorption (bleaching) with changing irradiation energy density [1]: depends on total irradiation energy (J/cm^2) and not on peak intensity
PDT effect (rate of cell death) ([2]; 6 μg/ml for 24 hours, excimer dye laser 670 nm, pulse width 10 ns, high pulse energy density (high peak intensity), repetition frequency 5 to 80 Hz, MTT after 24 hours): PDT effect almost disappeared
rate of cell death at maximum ([2]; 6 μg/ml for 24 hours, excimer dye laser 670 nm, pulse width 10 ns, low pulse energy density (low peak intensity), repetition frequency 5 to 80 Hz, MTT after 24 hours): ≤ 70%
rate of cell death with changing irradiation energy density ([2]; 25 μg/ml and 50 μg/ml, same irradiation energy density): rate of cell death is different, if the concentration of photosensitive substance is different
